Test results: PMC10608315, “Organic Synthesis of New Secosteroids from Fucosterol, Its Intestinal Absorption by Caco-2 Cells, and Simulation of the Biological Activities of Vitamin D” (Marine Drugs, 2023)
Read-outs that look alike come from different tables or passages of the source.

Tests used:
[1] = set-up: method as in PMID 9598513, PMID 10389917; details: potential cancer therapy; cited from earlier work
human breast cancer cell = tested on: human breast cancer cell; set-up: method as in PMID 10762752; details: compared with 1,25-di(OH)-vitamin D3; cited from earlier work
[2] = tested on: chemically induced cancers; details: cited from earlier work
[3] = set-up: method as in PMID 12628523; details: cited from earlier work
Caco-2 cells [4] = details: human, Caco-2, 24 h, 1 µM
Caco-2 cells [5] = experiment: Intestinal absorption of mixed micellar secosteroid by differentiated Caco-2 monolayers in Transwell plates (remaining, uptake, transport); details: summary of Caco-2 uptake and transport, 24 h
rickets = details: rats; cited from earlier work
Caco-2 = tested on: Caco-2; set-up: method as in PMID 9184144; details: cholesterol versus sitosterol; cited from earlier work

Question: With `C=C1C(=CC=C2CCCC3(C)C2CCC3C(C)CCCC(C)(C)O)CC(O)CC1O` (stereo not shown) [1,25-di(OH)-Vitamin D3] as the compound, how does the “Side effects in clinical trials” value [1] read?
Answer: The value was “side effects like hypercalcemia [75] and hypercalciuria”.

Question: What does the source list for `C=C1/C(=C\C=C2/CCC[C@]3(C)[C@@H]([C@H](C)CC[C@@H](CC)C(C)C)CC[C@@H]23)C[C@@H](O)C[C@@H]1O` [1-OH-vitamin D5]?
Answer: Inhibition of human breast cancer cell growth (human breast cancer cell): as effective as 1,25-di(OH)-vitamin D3; Effectiveness compared with 1,25-di(OH)-vitamin D3 [2]: less effective than 1,25-di(OH)-vitamin D3; Treatment of chemically induced cancers ([2]; mice and rats): effectively treated; Side effects like weight loss and disruptions to calcium levels [3]: markedly fewer side effects

Question: With `C=C1CCC(O)CC1=CC=C1CCCC2(C)C1CCC2C(C)CCC(=CC)C(C)C` [Compound 3, (5Z,7E,24E)-(3S)-9,10-seco-5,7,10(19),24(24^1)-stigmastatetraen-3-ol] as the compound, how does the “Concentration of micellar secosteroid remaining on the apical side” value (Caco-2 cells [4]) read?
Answer: Its value is “significantly higher concentrations than vitamin D3”.

Question: What about the “Intestinal absorption (uptake and transport) ranking” value (“Intestinal absorption” below) (Caco-2 cells [4]) of the same compound?
Answer: The value was “compound 4 ≥ vitamin D3 ≥ compound 3”.

Question: With `C=C(C)C(=CC)CCC(C)C1CCC2C(=CC=C3CC(O)CCC3=C)CCCC21C` [Compound 4, (5Z,7E,24E)-(3S)-9,10-seco-5,7,10(19),24(24^1),25(27)-stigmastapentaen-3-ol] as the compound, how does the “Concentration of micellar secosteroid remaining on the apical side” value (Caco-2 cells [4]) read?
Answer: The value was “significantly higher concentrations than vitamin D3”.

Question: And the “Intestinal absorption” value (Caco-2 cells [4])?
Answer: The value was “compound 4 ≥ vitamin D3 ≥ compound 3”.

Question: And the “Secosteroid transported from the monolayer into the basolateral medium” value (Caco-2 cells [4])?
Answer: Its value is “No significant deviation was observed between vitamin D3 and compound 4”.

Question: For `C=C1CC[C@H](O)C/C1=C/C=C1\CCC[C@]2(C)[C@@H]([C@H](C)CCCC(C)C)CC[C@@H]12` [Vitamin D3, cholecalciferol], which “Intestinal absorption” value (Caco-2 cells [5]) is on record?
Answer: The value was “compound 4 ≥ vitamin D3 ≥ compound 3”.

Question: With `C=C1CCC(O)C/C1=C/C=C1\CCCC2(C)C1CCC2C(C)CCC(CC)C(C)C` (stereo not shown) [Vitamin D5] as the compound, how does the Anti-rickets activity (rickets) read?
Answer: The Anti-rickets activity was “very low anti-rickets activity”.

Question: For `CC(C)CCC[C@@H](C)[C@H]1CC[C@H]2[C@@H]3CC=C4C[C@@H](O)CC[C@]4(C)[C@H]3CC[C@]12C` [cholesterol], which “Uptake and transport by Caco-2” value (Caco-2) is on record?
Answer: The value was “higher for cholesterol than for sitosterol”.
